In patent publication US8354400B2, “Benzoxazole compounds and methods of use” (Eisai R&D Co., Ltd., priority 2008, dated 2013):
“Also recorded” adds a separate entry of the source.

Experiments:
[1] = test system: dissociated mouse splenocytes; assay: Spleen CellTiter-Glo viability assay; format: cell-based; details: Splenocyte, 72 hours, viability (ATP)
Procedure: (3) Spleen CT Glo Assay: To determine if compounds had adverse effects on living cells, dissociated mouse splenocytes were incubated with some of the compounds for 72 hours. At the end of the incubation Celliter-Glo™ reagent (Promega Corporation, Madison, Wis.) was added and luminescence was read per manufacturer's instructions. This reagent measures ATP as an indication of cell metabolism. Dead cells will not produce signal. IC50 is defined as the concentration of compound that suppresses viability to 50% of that observed in the absence of compound. The few compounds that measurably affected viability did so at concentrations far above those that affected cytokine release in response to TLR9 stimulation.

[2] = test system: serum IL-6 after s.c. oligo CpG 1668 challenge; assay: In vivo short term CpG stimulation assay (serum IL-6); parameters: species or system mice; details: Mus musculus, po, 2 h, mice, oral in water, 20 mg/kg, s.c. 30 micrograms oligo CpG 1668 within 90 minutes, serum two hours later; repeat assays separated by commas; read-out: Percent short-term IL-6 suppression
Procedure: Short Term CpG Stimulation Assay: Compounds identified as having potency in the HEK/TLR9 and splenocyte CpG 1668 assays described in Example 9, above, were tested in an in vivo short term CpG stimulation assay. Mice were orally administered compound in water, and challenged within 90 minutes by subcutaneous (s.c.) injection of 30 micrograms of oligo CpG 1668. Two hours later serum was taken and assayed for IL-6 using ELISA analysis. Results from assays repeated on different dates are set forth as multiple numbers separated by commas.

human TLR9 = target: T1, human TLR9 (Homo sapiens, UniProt Q9NR96); assay: Primary assay: HEK/TLR9 activation (NF-kB luciferase reporter, Oligo CpG 2006 stimulation); format: cell-based; details: HEK293 transfected with human TLR9 and NF-kB luciferase; compound 30 min before Oligo CpG 2006; overnight; read-out: HEK/TLR9 IC50
T1 construct: expressed in transfected cells; host or cells: HEK293 (ATCC No. CRP-1573 [sic])
T1 sequence (Q9NR96 26-1032): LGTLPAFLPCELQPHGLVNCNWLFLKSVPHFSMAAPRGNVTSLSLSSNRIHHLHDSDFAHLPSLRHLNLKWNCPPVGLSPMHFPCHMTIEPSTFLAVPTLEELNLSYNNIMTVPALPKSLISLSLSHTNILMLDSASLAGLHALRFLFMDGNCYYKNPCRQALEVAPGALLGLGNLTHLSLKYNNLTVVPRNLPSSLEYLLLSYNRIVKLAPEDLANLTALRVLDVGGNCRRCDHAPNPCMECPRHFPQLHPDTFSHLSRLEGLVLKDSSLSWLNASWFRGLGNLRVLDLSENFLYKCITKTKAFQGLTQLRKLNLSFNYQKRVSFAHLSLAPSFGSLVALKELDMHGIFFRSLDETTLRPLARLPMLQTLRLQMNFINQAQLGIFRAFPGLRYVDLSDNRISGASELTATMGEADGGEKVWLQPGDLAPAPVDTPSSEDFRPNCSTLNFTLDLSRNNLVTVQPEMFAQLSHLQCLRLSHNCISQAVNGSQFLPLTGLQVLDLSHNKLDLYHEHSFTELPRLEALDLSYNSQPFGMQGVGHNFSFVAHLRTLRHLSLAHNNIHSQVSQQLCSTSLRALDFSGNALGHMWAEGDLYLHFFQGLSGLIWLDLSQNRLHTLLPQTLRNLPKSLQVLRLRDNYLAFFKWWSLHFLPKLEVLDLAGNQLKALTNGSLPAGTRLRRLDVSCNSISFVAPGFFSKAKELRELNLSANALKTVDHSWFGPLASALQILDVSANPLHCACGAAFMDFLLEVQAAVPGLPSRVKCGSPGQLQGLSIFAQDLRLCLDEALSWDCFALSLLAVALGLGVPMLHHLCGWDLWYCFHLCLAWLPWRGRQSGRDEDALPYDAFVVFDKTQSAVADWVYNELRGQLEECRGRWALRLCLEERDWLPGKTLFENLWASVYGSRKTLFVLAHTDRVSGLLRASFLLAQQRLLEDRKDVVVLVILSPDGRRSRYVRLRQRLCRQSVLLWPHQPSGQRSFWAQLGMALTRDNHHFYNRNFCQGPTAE
Source text: A. Primary Assay. The primary assay involved transfecting human embryonic kidney epithelial (HEK) cells with TLR9. More specifically, HEK293 […] cells (ATCC No. CRP-1573, American Type Culture Collection, Manassas, Va.) were transfected with pcDNA3.1D/V5-His-TOPO® plasmid (Invitrogen, Carlsbad, Calif.) encoding human TLR9 (directly inserted as a Tag polymerase-amplified PCR product) and firefly luciferase under the control of three NF-kB binding sites contained in the E-selectin-1 promoter, which was cloned into a pGL3-Enhancer Vector (Promega Corp, Madison, Wis.). Each compound was added to cells 30 min. before stimulation with Oligo CpG 2006, a synthetic phosphorothioate oligonucleotide (Hartmann et al., J Immunol. 164:1617-24 (2000)), with nucleotide sequence 5′-TCGTCGTTTTGTCGTTTTGTCGTT-3′ (SEQ ID NO:1). The cells were incubated overnight at 37° C. The luciferase substrate Steady-Glo® (Promega) was added to the wells, and luminescence was measured to determine the extent of TLR9-driven gene activation. The luminescence data was used to calculate an IC50 for each sample. The IC50 is defined as the concentration of compound that suppresses the luminescence to 50% of that observed in the absence of compound, in other words, with full stimulation.

[3] = test system: mouse spleen IL-6 production in response to Oligo CpG 1668; assay: Splenocyte CpG 1668 assay (IL-6 ELISA); format: cell-based; details: mouse splenocytes, Oligo CpG 1668, 72 hrs
Procedure: (2) Splenocyte CpG 1668 Assay: Some of the compounds tested in the primary assay were also assayed for suppression of mouse spleen IL-6 production in response to stimulation with Oligo CpG 1668, a synthetic phosphorothioate oligonucleotide (Krieg et al. Nature. 374:546-9 (1995)), with nucleotide sequence [NT] (SEQ ID NO:2). Each compound was added to dissociated splenocytes before addition of stimulatory oligonucleotide. Cells were stimulated in culture for 72 hrs and the supernatant was removed for ELISA analysis of IL-6 level. Here the IC50 is defined as the concentration of compound that suppresses cytokine production to 50% of that observed in the absence of compound, i.e., full stimulation.

human TLR7 = target: T2, human TLR7 (Homo sapiens, UniProt Q9NYK1); assay: HEK/TLR7 activation assay (R848 stimulation); format: cell-based; details: HEK cells transfected with human TLR7
T2 construct: expressed in transfected cells; host or cells: HEK cell line (HEK293, as in the primary assay)
T2 sequence (Q9NYK1 27-1049): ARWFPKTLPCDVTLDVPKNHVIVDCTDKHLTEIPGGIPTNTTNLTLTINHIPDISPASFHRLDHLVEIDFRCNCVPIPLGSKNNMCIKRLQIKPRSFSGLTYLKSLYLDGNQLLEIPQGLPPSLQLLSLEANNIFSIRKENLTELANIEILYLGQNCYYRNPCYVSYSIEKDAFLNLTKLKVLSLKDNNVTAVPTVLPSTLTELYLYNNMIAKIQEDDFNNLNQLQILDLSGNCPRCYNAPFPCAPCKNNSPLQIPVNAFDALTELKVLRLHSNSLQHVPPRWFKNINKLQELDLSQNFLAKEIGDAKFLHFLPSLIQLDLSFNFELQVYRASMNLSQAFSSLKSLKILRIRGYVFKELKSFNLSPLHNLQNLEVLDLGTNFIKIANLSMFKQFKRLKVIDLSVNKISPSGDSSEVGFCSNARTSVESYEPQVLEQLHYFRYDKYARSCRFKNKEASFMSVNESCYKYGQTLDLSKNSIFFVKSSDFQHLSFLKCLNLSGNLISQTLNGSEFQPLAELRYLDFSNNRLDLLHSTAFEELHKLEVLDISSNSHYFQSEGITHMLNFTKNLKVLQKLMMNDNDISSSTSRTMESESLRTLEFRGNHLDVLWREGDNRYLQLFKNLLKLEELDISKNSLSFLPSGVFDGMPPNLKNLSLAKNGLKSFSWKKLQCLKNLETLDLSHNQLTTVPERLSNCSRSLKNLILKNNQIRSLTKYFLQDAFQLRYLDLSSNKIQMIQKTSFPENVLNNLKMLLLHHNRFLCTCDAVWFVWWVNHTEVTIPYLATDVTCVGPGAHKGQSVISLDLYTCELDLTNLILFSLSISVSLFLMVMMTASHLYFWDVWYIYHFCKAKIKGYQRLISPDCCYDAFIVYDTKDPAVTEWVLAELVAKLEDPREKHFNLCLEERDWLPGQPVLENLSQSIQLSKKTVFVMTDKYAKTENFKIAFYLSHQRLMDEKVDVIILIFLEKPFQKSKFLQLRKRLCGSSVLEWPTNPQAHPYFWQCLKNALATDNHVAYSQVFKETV
Procedure: (1) HEK/TLR7Activation Assay: The same compounds were tested in the same way as the primary assay with the following differences. The plasmid used to transfect the HEK cell line encoded for human TLR7 instead of TLR9, and R848 was used to stimulate the cells instead of Oligo CpG 2006.

MRL/lpr mice = assay: MRL/lpr spontaneous lupus model, Experiment 2; format: in vivo; details: for serum anti-dsDNA levels: MRL/lpr mice, Experiment 2, doses per Table 4
Procedure: In this SLE experiment, dosing, groups were as described in Table 4 below. Two dose levels of Compound 23 were compared to HCQ and cyclophosphamide (Cytoxan®). HCQ and cyclophosphamide are currently used in the treatment of cutaneous and systemic lupus, respectively. […] Sera were assayed at a 1:600 dilution in PBS. (Mouse Anti-dsDNA Total Ig Qualitative ELISA kits, Alpha Diagnostic International). Dosing was conducted by either oral (p.o.) or intraperitoneal (i.p.) administration.

## COC[C@H]1CCCN1CCCOc1ccc(-c2nc3ccc(OCCCN4CCC[C@@H]4COC)cc3o2)cc1 [Compound 26]
[1]
  IC50: > 10000 nM
[2]
  inhibition in vivo at 20 mg/kg: 81%
Human TLR9
  IC50: 12.4 nM
[3]
  IC50: 42 nM

## CN(C)CCCOc1ccc2nc(-c3ccc(OCCCN(C)CCCN(C)C)cc3)oc2c1 [Compound 34]
Human TLR7
  IC50: 800 nM
[2]
  inhibition in vivo at 20 mg/kg: 26%
Human TLR9
  IC50: 4 nM

## CN(C)CCCOc1ccc2nc(-c3ccc(OCCCN(C)CCOCCOCCN(C)C)cc3)oc2c1 [Compound 35]
Human TLR7
  IC50: 1400 nM
[2]
  inhibition in vivo at 20 mg/kg: 38%
Human TLR9
  IC50: 29 nM
[3]
  IC50: 40 nM

## O=P1(N(CCCl)CCCl)NCCCO1 (centres unmarked) [Cyclophosphamide, cyclophosphamide]
MRL/lpr mice; 8 and 12 week dosing points
  difference in serum anti-dsDNA vs. vehicle by ANOVA: statistically significant
MRL/lpr mice
  serum anti-dsDNA levels: consistent suppression; also recorded: suppressed anti-dsDNA

## CCN(CCO)CCCC(C)Nc1ccnc2cc(Cl)ccc12 (centres unmarked) [hydroxychloroquine]
MRL/lpr mice
  serum anti-dsDNA levels: no detectable effect
